Results: US20060198882A1, “Stable liposomes or micelles comprising a sphinolipid and a peg-lipopolymer” (priority 2003, published 2006)
Values joined by “and” are separate entries in the source; they are usually repeats but may differ in a detail not shown here. Equal values may be shown once. Read-outs that look alike come from different tables or passages of the source.

Key:
[1] = Partition in the two phases of the Dole system; assay type: physicochemical; settings: for % of lipid in heptane-rich upper phase / % of lipid in isopropanol/water lower phase: Dole two phase system
Method: The distribution of the C18 sphingosine-based ceramides with different acyl chain lengths and of DMS between the polar phase and respectively less polar phase (as defined below) of the Dole two phase system was determined. […] The different ceramides included: short (C2 Cer and C4 Cer), medium (C6 Cer and C8 Cer), long (C16 Cer). […] In: Liposome Technology 2nd Edn., G Gregoriadis (Ed.) CRC Press, Boca Raton, 1993, vol. 1, pp: 527-616]. The amount of each of the lipids used in each of the two phases was measured by thin-layer chromatography (TLC). For ceramide quantification TLC was developed in a solvent system containing chloroform/methanol (95:5 v/v). For DMS quantification TLC was developed in a solvent system containing chloroform/methanol/ammonia (89/9/2 v/v). Further, the TLC plate was sprayed with Copper sulfate reagent composed of 100 g anhydrous copper sulfate containing 80 ml of phosphoric acid (85%), %) dissolved in 600 ml of DDW. Copper sulphate reagent was applied to the plates by spraying, then heated and lipids appeared as dark brown spot. […] Quantity of ceramides in each phase was calculated from a standard curve of appropriate ceramide. […] (1993)Supra]. The distribution between the two Dole system phases was determined by the equation (as exemplified for ceramide): [formula] [formula] Where Kp denotes the partition coefficient of a given lipid or amphiphile referred to in the equation as lipid; Cer denotes ceramide; up is an abbreviation for the heptane rich low polarity upper phase and lp is an abbreviation for the polar isopropanol water rich lower phase.

C-26 = experiment: Methylene blue assay of cell survival; assay type: cell-based, human
Description: (§1) Several tumor cell lines in monolayers were used. A human ovarian carcinoma cell line (OV-1063), established at the Hadassah University Hospital, a human colon carcinoma cell line (C-26), a DOX-sensitive M-109S ([…]), and a DOX-resistant, M-109R ([…]). All cell lines were maintained in RPMI-1640 medium supplemented with 10% FCS, antibiotics, and glutamine. All culture medium components were purchased from Biological Industries (Beit-HaEmek, Israel). Both cell lines were maintained at 37° C. in a water-jacketed CO2 incubator.
(§2) a) Various ceramides (Cer) with different chain lengths: short (C2 Cer and C4 Cer), medium (C6 Cer and C8 Cer), and long (C16 Cer) were first dissolved in 100% ethanol to a concentration of 30 mM, added to a serum-containing medium and mixed immediately. The final ethanol concentration in the serum-containing culture medium ranged from 0.1-0.5% (depending on the type of ceramide (Cer)).
(§3) b) Various ceramides with different chain lengths: short C2 Cer, medium C6 Cer, and long C16 Cer were dissolved in ethanol:dodecane (98:2 v/v) to a concentration of 30 mM and added to serum-free medium and mixed. Final concentrations of the ethanol and dodecane in the culture medium containing 10% of FCS ranged from 0.098-0.49% and 0.002-0.01%, respectively, depending on the type of ceramide.
(§4) The cytotoxicity of the examined assemblies comprising ceramide was tested by the methylene blue ([…]) staining assay [Gorodetsky, R. et al. Int. J. Cancer. 75:635-642 (1998)]. A known number of exponentially growing cells in 200 μL of medium were plated in 96-microwell, flat-bottomed plates. For each of the variants tested, 4 wells were used. Following 24 hr of incubation in culture, 20 μL of different concentrations of the examined assemblies were added to each well containing untreated cells.
(§5) The following controls were used: Citrate buffer (5 mM, pH 7); Ethanol solution in medium RPMI 1640 (final concentration of 0.1%); A solution RPMI 1640 of ethanol:dodecane (98:2 […]) at a final concentration of 0.1% and 0.2%, respectively.
(§6) Cells were exposed to assemblies for 4, 24, 72 or 96 hr. At the end of assembly exposure, for a fixed time interval, the drug-treated cells, as well as parallel control cells, were washed, and the incubation continued in fresh medium until termination of the experiment. Following 72 hr or 96 hr of growth, cells were fixed by adding 50 μL of 2.5% glutaraldehyde to each well for 15 min. Fixed cells were rinsed 10 times with deionized water and once with borate buffer (0.1 M, pH 8.5), dried, and stained with MB (100 μL of 1% solution in 0.1 M borate buffer, pH 8.5) for 1 h at room temperature (r.t.). Stained cells were rinsed thoroughly with de-ionized water to remove any non-cell-bound dye and then dried. The MB bound to the fixed cells was extracted by incubation at 37° C. with 200 μL of 0.1 N HCl for 1 h, and the net optical density of the dye in each well was determined by a plate spectrophotometer (Labsystems Multyskan Bichromatic, Finland) at 620 nm.

OV-1063 = experiment: Methylene blue assay of cell survival; assay type: cell-based, human; settings: Table 8B
Description: as §1, §2, §3, §4, §5, §6

[2] = Size distribution of ceramide dispersions by DLS; assay type: physicochemical
Method: The particle size distribution of all liposome dispersions prepared was determined at 25° C. by dynamic light-scattering (DLS) using the ALV-NIBS/HPPS ALV-Laser, Vertriebsgesellschaft GmbH, (Langen, Germany) instrument.
However, so far the biological activity of the ceramides was not evaluated in vivo in spite their potential beneficial activity due to difficulties in their delivery. As mentioned above, ceramides by themselves are difficult to be dispersed in serum-free medium. […] When a volume of ceramides (C2Cer, C6Cer, and C16Cer) in ethanol:dodecane (98:2 v/v) was diluted into 100 volumes of serum-free medium a milky translucent dispersion was formed.
However, when these ceramide dispersions were diluted further (final dilution 1:1000) in serum-containing medium, a 4-6 fold increase in particle size was observed. As a control, when the solvents ethanol:dodecane (98:2) were mixed by themselves with medium without ceramides, no particles were detected by DLS. Also, for comparison, when ceramide solutions in ethanol (without dodecane) were diluted 1:100 in serum-containing medium very large particles were observed by DLS (Table 11).

[3] = Partition in the two phases of the Dole system; assay type: physicochemical
[4] = Table 8A, C-26 cells, free ceramide dispersions, read-out: IC50 (μM), 4 hr
[5] = Table 8A, C-26 cells, read-out: IC50 (μM), 24 hr
[6] = Table 8A, C-26 cells, read-out: IC50 (μM), 72 hr
[7] = Table 8B, read-out: IC50 (μM), 4 hr C-26
[8] = Table 8B, read-out: IC50 (μM), 24 hr C-26
[9] = Table 8B, read-out: IC50 (μM), 72 hr C-26
[10] = read-out: IC50 (μM), 4 hr OV-1063
[11] = read-out: IC50 (μM), 24 hr OV-1063
[12] = read-out: IC50 (μM), 72 hr OV-1063

Compound	Kp (heptane rich/isopropanol and water rich partition coefficient) [1]	% of lipid in heptane-rich upper phase [1]	% of lipid in isopropanol/water lower phase [1]	IC50 (C-26; [4]) [µM]	IC50 (C-26; [5]) [µM]	IC50 (C-26; [6]) [µM]	IC50 (C-26; [7]) [µM]	IC50 (C-26; [8]) [µM]	IC50 (C-26; [9]) [µM]	IC50 (OV-1063; [10]) [µM]	IC50 (OV-1063; [11]) [µM]	IC50 (OV-1063; [12]) [µM]	Size (nm), Ethanol dispersion in serum-containing medium (1:100) [2] [nm]	Size (nm), Ethanol:dodecane (98:2) dispersion in serum-containing medium (1:1000) [2] [nm]	Size (nm), Ethanol:dodecane (98:2) dispersion in serum-free medium (1:100) [2] [nm]	Liposome formation (being a liposome forming lipid by itself) [3]
CCCCCCCCCCCCC/C=C/[C@@H](O)[C@H](CO)NC(C)=O [C2Cer, N-Acetyl-D-erythro-sphingosine]	0.54	21% and 21.2%	79% and 78.8%	> 60	> 30	20 ± 1	> 60	> 30	20 ± 1	> 80	> 30	25 ± 1.9	6514	1400	330	No
CCCCCCCCCCCCC/C=C/[C@@H](O)[C@H](CO)NC(=O)CCCCC [C6Cer, N-hexanoyl-D-erythro-sphingosine]	3.17	63% and 62.7%	37.3%	11 ± 5	4.1 ± 1.6	2.9 ± 1.2	11 ± 5	4.1 ± 1.6	2.9 ± 1.2	8 ± 0.1	4.5 ± 0.7	2.3 ± 1	3780	2100	330	No
CCCCCCCCCCCCC/C=C/[C@@H](O)[C@H](CO)NC(=O)CCCCCCCCCCCCCCC [C16Cer, N-palmitoyl-D-erythro-sphingosine]	8.21	89%	11%	> 100	> 100	80	> 100	> 100	80	> 100	> 100	90	4740	2824	790	No
